# Reference: ChEMBL document CHEMBL4387741, “Optimization of novel reversible Bruton's tyrosine kinase inhibitors identified using Tethering-fragment-based screens” (Bioorg Med Chem, 2019)
# Key:
# [1] = target: Tyrosine-protein kinase ABL1 (Homo sapiens) (UniProt P00519); assay: Inhibition of wild-type human phosphorylated ABL1 (S229 to K512 residues) expressed in mammalian expression system at 1 uM by Kinomescan method relative to control
# [2] = target: Serine/threonine-protein kinase tousled-like 2 (Homo sapiens) (UniProt Q86UE8); assay: Inhibition of wild-type human partial length TLK2 (E424 to N749 residues) expressed in bacterial expression system at 1 uM by Kinomescan method relative to control
# [3] = target: Interleukin-1 receptor-associated kinase 3 (Homo sapiens) (UniProt Q9Y616); assay: Inhibition of wild-type human partial length IRAK3 (V147 to E596 residues) expressed in bacterial expression system at 1 uM by Kinomescan method relative to control
# [4] = target: SRSF protein kinase 2 (Homo sapiens) (UniProt P78362); assay: Inhibition of wild-type human full length SRPK2 (M1 to S686 residues) expressed in bacterial expression system at 1 uM by Kinomescan method relative to control
# Sequence of SRSF protein kinase 2 (Homo sapiens) (P78362 whole entry, looked up, the tested form may be a part): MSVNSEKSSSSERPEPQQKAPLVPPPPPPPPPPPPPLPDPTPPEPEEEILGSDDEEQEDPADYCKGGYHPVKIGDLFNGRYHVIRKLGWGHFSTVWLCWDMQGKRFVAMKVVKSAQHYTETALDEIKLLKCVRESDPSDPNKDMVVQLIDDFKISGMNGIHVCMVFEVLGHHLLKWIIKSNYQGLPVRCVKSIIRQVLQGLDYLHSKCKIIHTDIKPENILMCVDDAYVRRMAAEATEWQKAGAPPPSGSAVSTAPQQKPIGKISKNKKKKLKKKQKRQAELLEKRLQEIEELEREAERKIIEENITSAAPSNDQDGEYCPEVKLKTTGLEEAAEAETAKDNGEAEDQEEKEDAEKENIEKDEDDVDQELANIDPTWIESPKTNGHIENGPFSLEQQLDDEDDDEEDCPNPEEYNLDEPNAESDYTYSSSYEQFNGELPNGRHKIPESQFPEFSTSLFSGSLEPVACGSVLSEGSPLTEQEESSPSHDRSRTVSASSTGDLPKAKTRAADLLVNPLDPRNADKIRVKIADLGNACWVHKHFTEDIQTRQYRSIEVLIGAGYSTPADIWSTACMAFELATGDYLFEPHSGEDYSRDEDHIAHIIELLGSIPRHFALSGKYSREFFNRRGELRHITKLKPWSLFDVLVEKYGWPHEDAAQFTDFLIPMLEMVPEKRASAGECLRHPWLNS
# [5] = target: Mitotic checkpoint serine/threonine-protein kinase BUB1 (Homo sapiens) (UniProt O43683); assay: Inhibition of wild-type human partial length BUB1 (Q724 to K1085 residues) expressed in mammalian expression system at 1 uM by Kinomescan method relative to control
# [6] = target: Mitogen-activated protein kinase 10 (Homo sapiens) (UniProt P53779); assay: Inhibition of wild-type human partial length JNK3 (V28 to Q422 residues) expressed in mammalian expression system at 1 uM by Kinomescan method relative to control
# [7] = target: Tyrosine-protein kinase Lyn (Homo sapiens) (UniProt P07948); assay: Inhibition of wild-type human partial length LYN (C219 to Q511 residues) expressed in bacterial expression system at 1 uM by Kinomescan method relative to control
# Sequence of Tyrosine-protein kinase Lyn (Homo sapiens) (P07948 2-512 limits assumed): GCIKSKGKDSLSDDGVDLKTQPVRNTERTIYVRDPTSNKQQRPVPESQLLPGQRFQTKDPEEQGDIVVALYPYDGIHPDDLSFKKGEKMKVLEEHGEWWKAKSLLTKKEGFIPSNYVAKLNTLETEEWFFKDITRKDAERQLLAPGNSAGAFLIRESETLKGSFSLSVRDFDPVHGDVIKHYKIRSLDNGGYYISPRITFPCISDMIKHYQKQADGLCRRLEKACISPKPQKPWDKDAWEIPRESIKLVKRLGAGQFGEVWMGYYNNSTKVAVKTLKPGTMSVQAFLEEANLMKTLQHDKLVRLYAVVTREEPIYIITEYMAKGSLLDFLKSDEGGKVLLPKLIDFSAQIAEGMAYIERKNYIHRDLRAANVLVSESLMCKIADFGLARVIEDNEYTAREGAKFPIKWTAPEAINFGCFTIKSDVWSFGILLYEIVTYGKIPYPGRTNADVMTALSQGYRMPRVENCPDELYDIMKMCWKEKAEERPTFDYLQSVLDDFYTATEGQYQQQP
# [8] = target: Glycogen synthase kinase-3 beta (Homo sapiens) (UniProt P49841); assay: Inhibition of wild-type human full length GSK3B (M1 to T433 residues) expressed in mammalian expression system at 1 uM by Kinomescan method relative to control
# [9] = target: Serine/threonine-protein kinase Nek4 (Homo sapiens) (UniProt P51957); assay: Inhibition of wild-type human full length NEK4 (M1 to F841 residues) expressed in mammalian expression system at 1 uM by Kinomescan method relative to control
# [10] = target: Cyclin-dependent kinase 19 (Homo sapiens) (UniProt Q9BWU1); assay: Inhibition of wild-type human partial length CDK11 (M1 to N360 residues) expressed in bacterial expression system at 1 uM by Kinomescan method relative to control
# [11] = target: Dual serine/threonine and tyrosine protein kinase (Homo sapiens) (UniProt Q6XUX3); assay: Inhibition of wild-type human full length RIPK5 (M1 to T929 residues) expressed in mammalian expression system at 1 uM by Kinomescan method relative to control
# [12] = tested on: Epidermal growth factor receptor (Homo sapiens), P00533 [UNDEFINED MUTATION]; assay: Inhibition of human partial length EGFR E746-A750del mutant expressed in bacterial expression system at 1 uM by Kinomescan method relative to control
# Sequence of Epidermal growth factor receptor (Homo sapiens), P00533 [UNDEFINED MUTATION] (P00533 whole entry, looked up, stated change not applied, the tested form may be a part, canonical isoform): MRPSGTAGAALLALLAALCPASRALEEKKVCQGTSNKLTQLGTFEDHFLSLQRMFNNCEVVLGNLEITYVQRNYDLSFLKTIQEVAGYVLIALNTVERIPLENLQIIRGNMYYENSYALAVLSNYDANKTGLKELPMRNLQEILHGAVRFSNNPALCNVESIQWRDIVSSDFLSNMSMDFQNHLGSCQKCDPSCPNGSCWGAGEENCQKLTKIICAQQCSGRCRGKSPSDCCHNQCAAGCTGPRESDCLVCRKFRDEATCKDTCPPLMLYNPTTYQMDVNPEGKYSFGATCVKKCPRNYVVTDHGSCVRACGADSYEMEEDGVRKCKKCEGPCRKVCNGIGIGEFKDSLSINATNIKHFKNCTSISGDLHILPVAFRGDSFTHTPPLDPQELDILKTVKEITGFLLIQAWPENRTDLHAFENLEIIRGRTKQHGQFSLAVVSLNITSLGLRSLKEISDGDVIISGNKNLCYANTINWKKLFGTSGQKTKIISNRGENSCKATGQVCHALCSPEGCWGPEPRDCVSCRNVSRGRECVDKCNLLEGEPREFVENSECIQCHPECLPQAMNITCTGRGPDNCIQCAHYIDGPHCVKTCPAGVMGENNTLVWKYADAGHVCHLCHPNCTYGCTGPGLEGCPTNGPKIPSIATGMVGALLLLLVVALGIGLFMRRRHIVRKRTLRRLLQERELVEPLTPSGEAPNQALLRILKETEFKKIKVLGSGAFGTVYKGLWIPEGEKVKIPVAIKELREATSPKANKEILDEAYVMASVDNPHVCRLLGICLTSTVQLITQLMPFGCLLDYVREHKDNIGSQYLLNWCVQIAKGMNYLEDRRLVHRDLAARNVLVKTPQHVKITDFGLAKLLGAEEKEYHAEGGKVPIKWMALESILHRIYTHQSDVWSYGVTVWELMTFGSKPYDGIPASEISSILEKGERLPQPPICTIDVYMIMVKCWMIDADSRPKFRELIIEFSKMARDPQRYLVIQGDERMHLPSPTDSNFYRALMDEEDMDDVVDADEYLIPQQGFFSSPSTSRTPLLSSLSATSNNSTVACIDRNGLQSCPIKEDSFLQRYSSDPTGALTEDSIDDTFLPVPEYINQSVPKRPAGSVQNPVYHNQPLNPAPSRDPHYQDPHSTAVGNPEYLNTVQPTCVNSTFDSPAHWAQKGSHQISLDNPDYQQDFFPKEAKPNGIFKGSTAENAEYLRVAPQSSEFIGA
# [13] = target: Casein kinase I isoform epsilon (Homo sapiens) (UniProt P49674); assay: Inhibition of wild-type human full length CSNK1E (M1 to K416 residues) expressed in bacterial expression system at 1 uM by Kinomescan method relative to control
# [14] = target: Death-associated protein kinase 3 (Homo sapiens) (UniProt O43293); assay: Inhibition of wild-type human partial length DAPK3 (M1 to A277 residues) expressed in bacterial expression system at 1 uM by Kinomescan method relative to control
# [15] = target: Macrophage colony-stimulating factor 1 receptor (Homo sapiens) (UniProt P07333); assay: Inhibition of wild-type human partial length autoinhibited CSF1R (Y538 to S939 residues) expressed in mammalian expression system at 1 uM by Kinomescan method relative to control
# Sequence of Macrophage colony-stimulating factor 1 receptor (Homo sapiens) (P07333 whole entry, the tested form may be a part): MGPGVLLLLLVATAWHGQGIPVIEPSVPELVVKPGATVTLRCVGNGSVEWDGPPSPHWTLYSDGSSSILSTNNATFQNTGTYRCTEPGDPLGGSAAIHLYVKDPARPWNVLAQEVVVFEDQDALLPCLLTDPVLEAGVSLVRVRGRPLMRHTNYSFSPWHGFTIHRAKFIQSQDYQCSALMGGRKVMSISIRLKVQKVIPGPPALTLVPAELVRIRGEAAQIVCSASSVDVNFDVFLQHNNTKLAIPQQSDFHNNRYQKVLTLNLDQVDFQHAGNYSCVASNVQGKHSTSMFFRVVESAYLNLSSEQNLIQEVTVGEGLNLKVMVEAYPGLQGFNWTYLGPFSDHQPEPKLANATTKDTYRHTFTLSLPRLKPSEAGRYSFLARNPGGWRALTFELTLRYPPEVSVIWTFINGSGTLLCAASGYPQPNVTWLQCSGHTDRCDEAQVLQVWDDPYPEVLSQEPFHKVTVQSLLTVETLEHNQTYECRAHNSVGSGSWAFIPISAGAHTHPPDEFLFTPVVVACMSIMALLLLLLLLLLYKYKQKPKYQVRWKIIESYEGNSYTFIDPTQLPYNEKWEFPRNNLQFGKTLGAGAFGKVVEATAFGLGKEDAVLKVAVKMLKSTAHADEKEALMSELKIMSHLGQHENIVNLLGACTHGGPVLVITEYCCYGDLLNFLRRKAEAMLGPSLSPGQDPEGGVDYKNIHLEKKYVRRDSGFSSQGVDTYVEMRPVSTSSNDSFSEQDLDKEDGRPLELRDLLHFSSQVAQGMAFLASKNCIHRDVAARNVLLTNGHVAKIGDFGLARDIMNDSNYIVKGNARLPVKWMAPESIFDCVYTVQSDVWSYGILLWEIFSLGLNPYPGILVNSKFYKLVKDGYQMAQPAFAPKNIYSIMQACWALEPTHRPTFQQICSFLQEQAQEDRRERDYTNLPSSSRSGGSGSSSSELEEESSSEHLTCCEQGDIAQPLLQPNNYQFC
# [16] = tested on: Tyrosine-protein kinase ABL1 (Homo sapiens), P00519 [Q252H]; assay: Inhibition of human non-phosphorylated ABL1 Q252H mutant (S229 to K512 residues) expressed in mammalian expression system at 1 uM by Kinomescan method relative to control
# [17] = target: Serine/threonine-protein kinase mTOR (Homo sapiens) (UniProt P42345); assay: Inhibition of wild-type human partial length MTOR (L1382 to W2549 residues) expressed in mammalian expression system at 1 uM by Kinomescan method relative to control
# [18] = target: Glycogen synthase kinase-3 alpha (Homo sapiens) (UniProt P49840); assay: Inhibition of wild-type human full length GSK3A (M1 to S483 residues) expressed in bacterial expression system at 10 uM by Kinomescan method relative to control
# Sequence of Glycogen synthase kinase-3 alpha (Homo sapiens) (P49840 2-483 limits assumed): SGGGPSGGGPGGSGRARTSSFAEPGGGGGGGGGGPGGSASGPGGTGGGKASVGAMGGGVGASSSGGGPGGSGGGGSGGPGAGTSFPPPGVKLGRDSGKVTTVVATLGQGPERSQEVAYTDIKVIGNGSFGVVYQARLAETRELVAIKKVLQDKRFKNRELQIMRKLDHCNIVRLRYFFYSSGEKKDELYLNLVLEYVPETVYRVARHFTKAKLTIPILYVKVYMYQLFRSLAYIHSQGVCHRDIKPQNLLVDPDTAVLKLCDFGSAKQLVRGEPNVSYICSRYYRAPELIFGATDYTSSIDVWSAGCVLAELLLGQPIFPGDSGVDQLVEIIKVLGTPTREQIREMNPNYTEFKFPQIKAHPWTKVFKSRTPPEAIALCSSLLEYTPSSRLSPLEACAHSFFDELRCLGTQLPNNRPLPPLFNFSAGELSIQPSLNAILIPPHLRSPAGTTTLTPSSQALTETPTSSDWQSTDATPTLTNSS
# [19] = target: Calcium/calmodulin-dependent protein kinase kinase 2 (Homo sapiens) (UniProt Q96RR4); assay: Inhibition of wild-type human partial length CAMKK2 (D65 to V471 residues) expressed in bacterial expression system at 10 uM by Kinomescan method relative to control
# [20] = target: Mitogen-activated protein kinase kinase kinase kinase 4 (Homo sapiens) (UniProt O95819); assay: Inhibition of wild-type human partial length MAP4K4 (M1 to R310 residues) expressed in bacterial expression system at 10 uM by Kinomescan method relative to control
# [21] = target: Mitogen-activated protein kinase 1 (Homo sapiens) (UniProt P28482); assay: Inhibition of wild-type human full length ERK2 (M1 to S360 residues) expressed in bacterial expression system at 10 uM by Kinomescan method relative to control
# [22] = target: Calcium/calmodulin-dependent protein kinase type 1D (Homo sapiens) (UniProt Q8IU85); assay: Inhibition of wild-type human partial length CAMK1D (M1 to K299 residues) expressed in bacterial expression system at 10 uM by Kinomescan method relative to control
# [23] = target: Serine/threonine-protein kinase tousled-like 1 (Homo sapiens) (UniProt Q9UKI8); assay: Inhibition of wild-type human partial length TLK1 (K447 to A754 residues) expressed in bacterial expression system at 10 uM by Kinomescan method relative to control
# Sequence of Serine/threonine-protein kinase tousled-like 1 (Homo sapiens) (Q9UKI8 whole entry, the tested form may be a part): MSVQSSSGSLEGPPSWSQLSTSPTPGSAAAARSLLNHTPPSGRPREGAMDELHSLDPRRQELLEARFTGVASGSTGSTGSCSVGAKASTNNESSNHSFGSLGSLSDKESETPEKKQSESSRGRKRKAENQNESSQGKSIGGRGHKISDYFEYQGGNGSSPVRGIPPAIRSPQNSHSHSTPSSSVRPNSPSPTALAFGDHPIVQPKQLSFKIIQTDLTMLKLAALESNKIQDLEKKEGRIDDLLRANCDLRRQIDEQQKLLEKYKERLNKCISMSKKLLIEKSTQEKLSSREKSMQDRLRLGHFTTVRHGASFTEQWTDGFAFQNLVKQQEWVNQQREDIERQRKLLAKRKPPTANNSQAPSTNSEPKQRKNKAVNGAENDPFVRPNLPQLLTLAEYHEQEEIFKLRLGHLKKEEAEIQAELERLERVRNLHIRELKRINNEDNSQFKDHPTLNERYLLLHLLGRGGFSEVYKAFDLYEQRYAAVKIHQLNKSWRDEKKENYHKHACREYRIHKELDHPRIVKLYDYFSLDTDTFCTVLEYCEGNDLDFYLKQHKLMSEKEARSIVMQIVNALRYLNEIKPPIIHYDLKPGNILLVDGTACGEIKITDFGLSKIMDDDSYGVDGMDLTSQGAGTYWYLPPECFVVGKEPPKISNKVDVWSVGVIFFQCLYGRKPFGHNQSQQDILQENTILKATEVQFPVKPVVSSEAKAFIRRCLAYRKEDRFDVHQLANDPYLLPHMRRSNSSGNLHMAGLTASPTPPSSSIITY
# [24] = target: Serine/threonine-protein kinase WNK2 (Homo sapiens) (UniProt Q9Y3S1); assay: Inhibition of wild-type human partial length WNK2 (V47 to D482 residues) expressed in mammalian expression system at 10 uM by Kinomescan method relative to control
# [25] = target: Leukocyte tyrosine kinase receptor (Homo sapiens) (UniProt P29376); assay: Inhibition of wild-type human partial length LTK (P422 to S744 residues) expressed in bacterial expression system at 10 uM by Kinomescan method relative to control
# [26] = target: Dual specificity mitogen-activated protein kinase kinase 3 (Homo sapiens) (UniProt P46734); assay: Inhibition of wild-type human full length MEK3 (M1 to S318 residues) expressed in mammalian expression system at 10 uM by Kinomescan method relative to control
# Sequence of Dual specificity mitogen-activated protein kinase kinase 3 (Homo sapiens) (P46734 whole entry, the tested form may be a part): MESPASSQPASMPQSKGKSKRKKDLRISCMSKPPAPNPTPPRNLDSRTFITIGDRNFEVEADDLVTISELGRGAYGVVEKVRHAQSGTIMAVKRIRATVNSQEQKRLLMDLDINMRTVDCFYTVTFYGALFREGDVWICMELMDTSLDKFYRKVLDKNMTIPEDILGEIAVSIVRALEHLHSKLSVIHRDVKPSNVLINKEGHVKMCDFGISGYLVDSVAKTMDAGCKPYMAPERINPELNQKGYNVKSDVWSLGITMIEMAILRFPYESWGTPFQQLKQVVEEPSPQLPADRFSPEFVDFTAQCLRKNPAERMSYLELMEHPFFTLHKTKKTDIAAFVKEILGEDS
# [27] = target: Serine/threonine-protein kinase DCLK2 (Homo sapiens) (UniProt Q8N568); assay: Inhibition of wild-type human partial length DCAMKL2 (K273 to V664 residues) expressed in bacterial expression system at 10 uM by Kinomescan method relative to control
smiles,measurement,setting,value
O=C(Nc1cccc([C@@H]2CN(c3ncnc4[nH]ccc34)CCN2CCO)c1)Nc1c(F)cccc1N1CCCC1,inhibition,[1],62%
same,inhibition,[2],99%
same,inhibition,[3],100%
same,inhibition,[4],88%
same,inhibition,[5],87%
same,inhibition,[6],97%
same,inhibition,[7],72%
same,inhibition,[8],83%
same,inhibition,[9],86%
same,inhibition,[10],100%
same,inhibition,[11],74%
same,inhibition,[12],97%
same,inhibition,[13],94%
same,inhibition,[14],5.2%
same,inhibition,[15],83%
same,inhibition,[16],55%
same,inhibition,[17],96%
O=C(Nc1cccc([C@H]2CCCN(c3ncnc4[nH]ccc34)C2)c1)Nc1ccccc1N1CCCC1,inhibition,[18],100%
same,inhibition,[19],92%
same,inhibition,[20],100%
same,inhibition,[21],100%
same,inhibition,[22],54%
same,inhibition,[23],78%
same,inhibition,[24],100%
same,inhibition,[25],100%
same,inhibition,[26],54%
same,inhibition,[27],83%
